Test: Solubility of tacrolimus in oil solvents measured by HPLC
Assay type: physicochemical
Protocol: In this Example, the solubility of tacrolimus in various oil solvents was measured by HPLC.
Approximately 40 mg of tacrolimus was weighed and a known quantity (1-2 g) of oil was added and stirred for 5 hours at room temperature. […] If the tacrolimus appeared to be fully dissolved in under 10 g of oil the sample was then placed at 4° C. overnight. If the tacrolimus precipitated out after cold storage further oil was added and the above steps were repeated until dissolved or the 10 g of oil had been added. All samples were then centrifuged to ensure any non-dissolved tacrolimus was removed and the supernatant analysed by HPLC as described in Example 1.

C=CC[C@@H]1/C=C(\C)C[C@H](C)C[C@H](OC)[C@H]2O[C@@](O)(C(=O)C(=O)N3CCCC[C@H]3C(=O)O[C@H](/C(C)=C/[C@@H]3CC[C@@H](O)[C@H](OC)C3)[C@H](C)[C@@H](O)CC1=O)[C@H](C)C[C@@H]2OC [tacrolimus]
Solubility (% wt) (tacrolimus in Capric caprylic trigylcerides): 0.44 % wt
Solubility (% wt) (tacrolimus in Castor oil): 1.44 % wt
Solubility (% wt) (tacrolimus in Cyclomethicone): 0.004 % wt
Solubility (% wt) (tacrolimus in Dibutyl adipate, room temperature, then 4° C. overnight, *assay within 95% of theoretical maximum, likely solubility greater than stated): 3.24* % wt
Solubility (% wt) (tacrolimus in Diethyl sebacate, room temperature, then 4° C. overnight, *assay within 95% of theoretical maximum, likely solubility greater than stated): 3.26* % wt
Solubility (% wt) (tacrolimus in Diisopropyl adipate, room temperature, then 4° C. overnight, *assay within 95% of theoretical maximum, likely solubility greater than stated): 3.08* % wt
Solubility (% wt) (tacrolimus in Dimethicone): 0.004 % wt
Solubility (% wt) (tacrolimus in Heptylmethylnonane): 0.006 % wt
Solubility (% wt) (tacrolimus in Isopropyl isostearate): 0.19 % wt
Solubility (% wt) (tacrolimus in Isopropyl myristate): 0.25 % wt
Solubility (% wt) (tacrolimus in Isopropyl palmitate): 0.26 % wt
Solubility (% wt) (tacrolimus in Mineral oil): 0.003 % wt

From patent publication US12447146B2, “Topical composition comprising tacrolimus” (MC2 Therapeutics Limited, priority 2016, dated 2025)
